Assay results taken from patent US20150368617A1, “METHOD FOR FORMING ENDOTHELIAL CELLS” (Korea Advanced Institute of Science and Technology (KAIST), priority 2012, published 2015).

What was measured:
Type in all cases: cell-based, mouse
ICAM2+ ECs = assay: Quantitative RT-PCR of EC- and MC-related genes in purified ICAM2+ ECs; conditions: VEGF-A plus Y27632 compared to VEGF-A
From the text: Total RNA from purified ICAM-2+ ECs was extracted using Trizol RNA extraction kit (Invitrogen) according to the manufacturer's instructions. 1┌ g of the RNA was reverse transcribed into cDNA using GoScript™ cDNA synthesis system (Promega). Synthesized cDNA was applied for quantitative real-time PCR using FastStart SYBR green Master (Roche) and Bio-Rad S1000 Thermal cycler with the indicated primers (Table I). GAPDH was used as reference gene and the results were presented as relative expression to control using the ddCt method.

VYI-ECs [1] = assay: Matrigel tube forming assay; conditions: addition of Y27632 10 μM to VEGF-A
Method: The purified VYI-ECs (described in detail in the Results section) were plated on Matrigel-filled plates at a density of 2-4×10^4 cells/cm^2, and were incubated in differentiation medium containing VEGF-A (50 ng/ml) with or without Y27632 (10┌ M). After 12 hrs, the tube structures were observed using Axiovert 25 microscope (Carl Zeiss) and phase-contrast images were taken using DeltaPix infinity X digital camera and DpxView LE software (DeltaPix, Denmark).

Flk1+ MPCs = assay: Cell adhesion assay, Flk1+ MPCs; conditions: 6 hrs
Method: Sorted Flk1+ MPCs or ICAM2+ ECs were plated onto Matrigel coated plates at a density of 10,000 cells/cm^2. Six hrs after plating, non-adherent cells were removed by washing and the cell number of adherent cells was counted following trypsinization. The percentage of adherent cells was calculated as (counted cell number/initial seeded cell number)×100.

VYI-ECs [2] = assay: Angiogenesis assay using a microfluidic device; conditions: 72 hr; co-treatment of Y27632 with VEGF-A
Method: To test the angiogenic property of VYI-ECs, we utilized a microfluidic platform that was modified from the previously described device. Briefly, a poly-dimethylsiloxane (PDMS) based microfluidic platform containing three channels was fabricated with poly-dimethylsiloxane using a soft lithography process. Two empty spaces in between three parallel channels were filled with a mixture of type I collagen (3 mg/ml, rat tail, BD Biosciences) and fibronectin (50 μg/ml, Invitrogen), which together acted as an ECM scaffold. The center channel was coated with fibronectin (10 μg/ml), and was seeded with 40˜50 μl of VYI-EC suspension (1×10^7 cells/ml). The device was tilted vertically for 1 hr to allow the cells to attach onto the sidewall of the scaffold by gravity. The cells were then seeded onto the other sidewall by flipping the device upside down. Cell culture media in the side channels containing VEGF-A (50 ng/ml) or VEGF-A (50 ng/ml) plus Y27632 (10 μM) were exchanged with fresh media every 12 hr. Phase contrast and immunofluorescent images were acquired to analyze the angiogenic sprouting formation of VYI-ECs.

CD144+ ECs [3] = assay: FACS phenotypic analysis of EC and MC markers at day 6.5
Method: FIGS. 12A to 12B-6. ROCK suppression-induced ECs express EC-specific genes. (FIG. 12A) Diagram of cell preparations for phenotype analyses of EC and MC differentiation. Flk1+ MPCs were incubated with only VEGF-A (50 ng/ml) (Control) and VEGF-A (50 ng/ml) plus Y27632 (10┌ M) (Y72632) for 2 days. (FIG. 12B-1 to FIG. 12B-6) Representative FACS analysis for phenotypic markers in CD144+ cells; pan-endothelial, mural, and arterial-, venous- and lymphatic EC.
Cells were harvested with 0.25% trypsin-EDTA (Invitrogen) or dissociation buffer (Invitrogen) and resuspended in HBSS/2% FBS at 1×10^6 cells per 100┌ l. The cells were incubated for 20 min with the following antibodies: biotin-conjugated anti-mouse Flk1 (clone AVAS12a1, eBioscience), allophycocyanin (APC)-conjugated anti-mouse CD140a (clone APA5, eBioscience), phycoerythrin(PE)-conjugated anti-mouse CD31 (clone 390, eBioscience), Alexa Fluor® 647-conjugated anti-mouse CD144 (clone BV13, eBioscience), PE-conjugated anti-mouse D114 (clone HMD4-1, Biolegend), PE-conjugated anti-mouse Tie2 (clone TEK4, eBioscience), PE-conjugated anti-mouse Endoglin (clone MJ7/18, Biolegend), anti-mouse ICAM2 (clone 3C4, Biolegend), APC-conjugated anti-mouse CD140b (clone APBS, eBioscience), PE-conjugated anti-mouse LYVE1 (clone ALY7, eBioscience), anti-mouse VEGFR3 (goat polyclonal, R&D systems), anti-mouse EphB4 (clone VEB4-7E4, Hycult biotech), and PE-conjugated anti-mouse Notch1 (clone HMN1-12, Biolegend). After washing in HBSS/2% FBS twice, the cells were incubated with the following secondary antibodies: PE-conjugated streptavidin (eBioscience), PE-conjugated anti-rat IgG2a (eBioscience), and FITC-conjugated anti-goat IgG (Invitrogen). Dead cells were excluded by 7-aminoactinomycin D (7-AAD, Invitrogen).

VYI-ECs [4] = assay: Scratch wound healing assay; conditions: addition of Y27632 10 μM to VEGF-A
Method: The purified VYI-ECs were plated on Matrigel-coated plates and incubated in differentiation medium until confluent. A single scratch wound was made on the cell-plated surface with a 200┌ l disposable pipette tip, and the medium was exchanged with a new medium containing either VEGF-A (50 ng/ml), Y27632 (10┌ M), or both. The wound was allowed to heal for 12 hrs. Phase contrast images were taken at 0, 3, 6, and 12 hrs. The average extent of wound closure was evaluated by measuring the wound area using ImageJ software.

CD144+ ECs [5] = assay: BrdU/7-AAD cell cycle analysis and BrdU incorporation in differentiating Flk1+ MPCs
Method: Apoptosis assay was performed as previously described. To determine the cell cycle, BrdU/7-AAD cell cycle analysis was performed according to the manufacturer's instructions (BD Pharmingen™). Briefly, cells were incubated with BrdU (1 mM) for 1 hr, dissociated with dissociation buffer, and stained with anti-CD144 antibody. The cells were then fixed, permeabilized, and fixed once more, followed by 1 hr incubation with DNase I (200 U) at 37┌ C. After incubation with FITC-conjugated anti-BrdU antibody for 20 min at RT, the cells were stained with 7-AAD. The cells were analyzed by FACS Aria II and the data were analyzed using FlowJo software.

## C[C@@H](N)[C@H]1CC[C@H](C(=O)Nc2ccncc2)CC1 [Y27632]
ICAM2+ ECs
  calponin mRNA, reduced expression level: 25 fold
  claudin-5 mRNA, expressed more: 4.6 fold
  dll4 mRNA, expressed more: 2.5 fold
  ets1 mRNA, expressed more: 1.4 fold
  ets2 mRNA, expressed more: 2.1 fold
  notch1 mRNA, expressed more: 1.5 fold
  sm22a mRNA, reduced expression level: 25 fold
  sma mRNA, reduced expression level: 17 fold
  sox17 mRNA, expressed more: 1.7 fold
  sox18 mRNA, expressed more: 1.8 fold
  vegfr3 mRNA, expressed more: 1.7 fold
VYI-ECs [1]
  increase of formation of vascular networks: 1.7 fold
Flk1+ MPCs
  adhesion of Flk1+ cells onto the plates compared to control: 1.3 fold
VYI-ECs [2]
  increase of length of sprouting CD144+ VYI-ECs: 1.7 fold
CD144+ ECs [3]
  population of CD144+ ECs expressing pan-endothelial cell surface markers (Flk1, Tie2, endoglin and ICAM2) compared to control: ~2.0 fold
  population of CD144+ ECs that express D114 (arterial): 4.6 fold
  population of CD144+ ECs that express EphB4 (venous): 2.4 fold
  population of CD144+ ECs that express LYVE-1 (lymphatic): 2.1 fold
  population of CD144+ ECs that express Notch1 (arterial): 2.4 fold
  population of CD144+ ECs that express VEGFR3 (lymphatic): 3.8 fold
  populations of cells expressing αSMA and CD140b: markedly reduced
VYI-ECs [4]
  increase of cell invasion into the wound region: 2.1 fold
CD144+ ECs [5]; 12 hrs
  increase of BrdU+/CD144+ EC population: 1.7 fold
CD144+ ECs [5]; 36 hrs
  increase of BrdU+/CD144+ EC population: 2.7 fold
  increase of population of CD144+ ECs in S phase compared to control: 1.23 fold
  reduction of CD144+ ECs in G0/G1 phase compared to control: 12%
